Test results from PubChem BioAssay AID2060492 (Molecular Pharmacology Branch, DTP, NCI, 2025).

System: 695427-040-R-J1-PDC complex spheroids, viability percent T/C
Assay: Anticancer human tumor 695427-040-R-J1-PDC patient-derived colon adenocarcinoma cell line growth inhibition [GQUAD]
Conditions: for IC50: curve of first compound; for viability, T/C: stronger effect = lower value
Text: DNA G-quadruplex Stabilizer Agents in Combinations in Complex Spheroids
A high-throughput screen of multi-cell type tumor spheroids was designed to identify active combinations of DNA G-quadruplex stabilizer agents and targeted small molecules. Complex spheroids include a stromal component modeled by human endothelial cells (HUVEC) and fibroblasts modeled by human mesenchymal stem cells (MSCs). The concentration ranges selected for each drug and investigational agent were based upon clinically achievable concentrations if the clinical Cmax of the agent was known.
Compounds. The drugs and investigational agents: pidnarulex (CX-5461; NSC782164), APTO-253 (NSC789042), BRACO-19 (NSC847499), peposertib (NSC802822), ceralasertib (NSC780249), elimusertib (NSC800525), camonsertib (NSC841442), AZD-1390 (NSC803789), olaparib (NSC753686), talazoparib (NSC767125), ART-558 (NSC835418), sotorasib (NSC818433), MRTX-1133 (NSC836407), SN-38 (NSC673596), topotecan (NSC609699), etoposide (NSC141540), doxorubicin (NSC123127), gemcitabine (NSC613327), 5-fluorouracil (NSC19893), paclitaxel (NSC125973), vemurafenib (NSC761431), panobinostat (NSC761190), R-306465 (JNJ-16241199; NSC773264), adavosertib (NSC754352), TP-3654 (NSC805149), carboplatin (NSC241240), KSQ-4279 (NSC840948), and staurosporine (NSC755774) were obtained from the National Cancer Institute (NCI) Developmental Therapeutics Program Chemical Repository (34). The FDA-approved anticancer drug set is available from the NCI Developmental Therapeutics Program. […] The stock solutions were prepared in dimethyl sulfoxide (DMSO, Sigma-Aldrich, St. Louis, MO, cat. D2650) at 800-fold the tested concentration and stored at -70 degrees C prior to their use. All drugs and investigational agents were tested over a range starting from a high concentration at or near the clinical Cmax and decreasing in half-log increments. If the clinical Cmax for an agent had not been determined, the highest concentration tested was 10 microM.
2.3 Cell Culture. All cells were maintained in an incubator at 37 degrees C and 5% CO2 with 95% humidity. The PDC lines were cultured according to standard operating procedures established by the NCI PDMR. All PDCs were thawed and cultured in Matrigel-coated flasks prepared with a working solution of 1X Ham's F-12 nutrient mix, without supplementation (Invitrogen, cat. 11765054), 100 U/mL penicillin-streptomycin (Invitrogen, cat. 15140122), and 2.5% Matrigel (Corning Inc., cat. 354248) for the first three passages. The 857933-349-R-J2-PDC line was cultured in 6C/Colon 1B media, which includes advanced DMEM/F-12 (Thermo Fisher Scientific, cat. 12634028), 10 mM HEPES (Thermo Fisher Scientific, cat. 15630080), 1X GlutaMAX supplement (Thermo Fisher Scientific, cat. 35050061), 0.1 mg/mL primocin (InvivoGen, cat. ant-pm-2), 10% defined fetal bovine serum, heat inactivated (HyClone Laboratories Inc., cat. SH30070.03HI), 50% L-WRN conditioned media (ATCC, cat. CRL-3276), 1.25 mM N-Acetyl-L-cysteine (Sigma-Aldrich, cat. A9165), 10 mM nicotinamide (Sigma-Aldrich, cat. N0636), 1X B-27 supplement (Thermo Fisher Scientific, cat. 17504044), 1X N-2 supplement (Thermo Fisher Scientific, cat. 17502048), 10 microM Y-27632 dihydrochloride (Tocris Bioscience, cat. 1254), and 50 ng/mL human EGF recombinant protein (Thermo Fisher Scientific, cat. PHG0311). The 485176-168-R4-J1-PDC line was cultured in Panc media, which includes all 6C/Colon 1B media components plus 100 ng/mL human FGF-10 (Thermo Fisher Scientific, cat. 100-26), 500 nM SB-431542 (Selleckchem, cat. S1067), and gastrin (Tocris, cat. 3006).
[…]

[1] = second compound 0.0316 µM, first compound 0.0316 µM
[2] = second compound 0.0316 µM, first compound 0.316 µM
[3] = second compound 0.1 µM, first compound 0.0316 µM
[4] = second compound 0.1 µM, first compound 0.316 µM
[5] = second compound 0.316 µM, first compound 0.0316 µM
[6] = second compound 0.316 µM, first compound 0.316 µM
[7] = second compound 1 µM, first compound 0.0316 µM
[8] = second compound 1 µM, first compound 0.316 µM
[9] = second compound 3.16 µM, first compound 0.0316 µM
[10] = second compound 3.16 µM, first compound 0.316 µM
[11] = second compound 10 µM, first compound 0.0316 µM
[12] = second compound 10 µM, first compound 0.316 µM
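Further: spheroids exposed to compounds for seven days before readout.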

Cc1cccc(N(C)C(=O)C2C(O)CCN2c2nc(C)cc(C(F)(F)F)c2C#N)c1 (centres undefined) + CN(C)c1ccc(Nc2c3ccc(NC(=O)CCN4CCCC4)cc3nc3cc(NC(=O)CCN4CCCC4)ccc23)cc1
IC50 (second compound 0.0316 µM): > 10 µM
IC50 (second compound 0.1 µM): > 10 µM
IC50 (second compound 0.316 µM): > 10 µM
IC50 (second compound 1 µM): > 10 µM
IC50 (second compound 3.16 µM): > 10 µM
IC50 (second compound 10 µM): > 10 µM
viability, T/C [1]: 111%
viability, T/C (second compound 0.0316 µM, first compound 0.1 µM): 103%
viability, T/C [2]: 106%
viability, T/C (second compound 0.0316 µM, first compound 1 µM): 99.9%
viability, T/C (second compound 0.0316 µM, first compound 3.16 µM): 107%
viability, T/C (second compound 0.0316 µM, first compound 10 µM): 90.3%
viability, T/C [3]: 110%
viability, T/C (second compound 0.1 µM, first compound 0.1 µM): 92.3%
viability, T/C [4]: 106%
viability, T/C (second compound 0.1 µM, first compound 1 µM): 102%
viability, T/C (second compound 0.1 µM, first compound 3.16 µM): 101%
viability, T/C (second compound 0.1 µM, first compound 10 µM): 95.6%
viability, T/C [5]: 110%
viability, T/C (second compound 0.316 µM, first compound 0.1 µM): 101%
viability, T/C [6]: 97.3%
viability, T/C (second compound 0.316 µM, first compound 1 µM): 98.2%
viability, T/C (second compound 0.316 µM, first compound 3.16 µM): 107%
viability, T/C (second compound 0.316 µM, first compound 10 µM): 103%
viability, T/C [7]: 104%
viability, T/C (second compound 1 µM, first compound 0.1 µM): 90.7%
viability, T/C [8]: 98.3%
viability, T/C (second compound 1 µM, first compound 1 µM): 96.1%
viability, T/C (second compound 1 µM, first compound 3.16 µM): 104%
viability, T/C (second compound 1 µM, first compound 10 µM): 101%
viability, T/C [9]: 93.6%
viability, T/C (second compound 3.16 µM, first compound 0.1 µM): 94.6%
viability, T/C [10]: 95.4%
viability, T/C (second compound 3.16 µM, first compound 1 µM): 95.6%
viability, T/C (second compound 3.16 µM, first compound 3.16 µM): 106%
viability, T/C (second compound 3.16 µM, first compound 10 µM): 93.9%
viability, T/C [11]: 81%
viability, T/C (second compound 10 µM, first compound 0.1 µM): 86.6%
viability, T/C [12]: 88.9%
viability, T/C (second compound 10 µM, first compound 1 µM): 78.8%
viability, T/C (second compound 10 µM, first compound 3.16 µM): 91.2%
viability, T/C (second compound 10 µM, first compound 10 µM): 85.8%

Cn1ncnc1[C@H]1c2n[nH]c(=O)c3cc(F)cc(c23)N[C@@H]1c1ccc(F)cc1 + CN(C)c1ccc(Nc2c3ccc(NC(=O)CCN4CCCC4)cc3nc3cc(NC(=O)CCN4CCCC4)ccc23)cc1
IC50 (second compound 0.0316 µM): > 0.316 µM
IC50 (second compound 0.1 µM): > 0.316 µM
IC50 (second compound 0.316 µM): > 0.316 µM
IC50 (second compound 1 µM): > 0.316 µM
IC50 (second compound 3.16 µM): > 0.316 µM
IC50 (second compound 10 µM): > 0.316 µM
viability, T/C (second compound 0.0316 µM, first compound 0.000999 µM): 102%
viability, T/C (second compound 0.0316 µM, first compound 0.00316 µM): 92.9%
viability, T/C (second compound 0.0316 µM, first compound 0.00999 µM): 101%
viability, T/C [1]: 103%
viability, T/C (second compound 0.0316 µM, first compound 0.0999 µM): 100%
viability, T/C [2]: 93%
viability, T/C (second compound 0.1 µM, first compound 0.000999 µM): 112%
viability, T/C (second compound 0.1 µM, first compound 0.00316 µM): 89.1%
viability, T/C (second compound 0.1 µM, first compound 0.00999 µM): 95.7%
viability, T/C [3]: 92.8%
viability, T/C (second compound 0.1 µM, first compound 0.0999 µM): 93.5%
viability, T/C [4]: 97.5%
viability, T/C (second compound 0.316 µM, first compound 0.000999 µM): 88.2%
viability, T/C (second compound 0.316 µM, first compound 0.00316 µM): 95.8%
viability, T/C (second compound 0.316 µM, first compound 0.00999 µM): 99.5%
viability, T/C [5]: 96.6%
viability, T/C (second compound 0.316 µM, first compound 0.0999 µM): 90.9%
viability, T/C [6]: 91.2%
viability, T/C (second compound 1 µM, first compound 0.000999 µM): 105%
viability, T/C (second compound 1 µM, first compound 0.00316 µM): 97.8%
viability, T/C (second compound 1 µM, first compound 0.00999 µM): 91.5%
viability, T/C [7]: 104%
viability, T/C (second compound 1 µM, first compound 0.0999 µM): 101%
viability, T/C [8]: 87.3%
viability, T/C (second compound 3.16 µM, first compound 0.000999 µM): 99.6%
viability, T/C (second compound 3.16 µM, first compound 0.00316 µM): 94.7%
viability, T/C (second compound 3.16 µM, first compound 0.00999 µM): 88.8%
viability, T/C [9]: 94.2%
viability, T/C (second compound 3.16 µM, first compound 0.0999 µM): 95%
viability, T/C [10]: 93.4%
viability, T/C (second compound 10 µM, first compound 0.000999 µM): 93.3%
viability, T/C (second compound 10 µM, first compound 0.00316 µM): 89.8%
viability, T/C (second compound 10 µM, first compound 0.00999 µM): 77.3%
viability, T/C [11]: 86.2%
viability, T/C (second compound 10 µM, first compound 0.0999 µM): 96.4%
viability, T/C [12]: 90.1%
